We go through four molecules from patent US5593970A, “Heterocyclic anthracycline analogs” (priority 1994, dated 1997).

The structures appear in SMILES notation. Structures can show the parent of a compound that is named as a salt.

Assay [1] concerns SKOV3. Put plainly: Microculture tetrazolium assay. The note with it: Homo sapiens, SK-OV-3, SKOV3; read-out: IC50. In kind it is cell-based.
The test system of assay [2] is HT29. The assay can be described thus: Soft agar colony formation disk diffusion assay. In kind it is cell-based, human. Put shortly: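 Cells were plated at 10^4–2×10^5 cells per dish in a 0.4% Noble agar upper layer over 0.8% agar. The compound (DMSO/water solution) was applied on a 6.5 mm filter disk, and plates were incubated at 37 °C, 5% CO2 for 10–20 days. Anti-clonogenic activity was measured microscopically as the inhibition zone from the disk edge to the nearest colonies (>50 cells).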

The subject of assay [3] is T47D. The assay can be described thus: Microculture tetrazolium assay. The note with it: Homo sapiens, read-out: IC50. The format is cell-based.
Assay [4] relates to Ovarian. Put plainly: NCI assay, average per cancer type. The note with it: Homo sapiens; for CC50: 48 h, read-out: Average LOG10 LC50; for GI50: read-out: Average LOG10 GI50.
For assay [5], the system named is MATB.WT. Put plainly: Soft agar colony formation disk diffusion assay. The format is cell-based, rat. An outline of the steps:
(§1)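 Read-out: zone of inhibition, disk edge to most proximal colony (>50 cells), measured by ocular micrometer at 40×. Two-layer agar, 10^4 to 2×10^5 cells per dish, drug on filter disk, 37° C., 5% CO2, 10-20 days.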

Assay [6] deals with MATB/ADR. Put plainly: Soft agar colony formation disk diffusion assay. The format is cell-based, rat. An outline of the steps: as §1
Assay [7] deals with HT29. Put plainly: Microculture tetrazolium assay. In kind it is cell-based. The note with it: Homo sapiens, HT-29, HT29; read-out: IC50.
The test system of assay [8] is SKVLB. Put plainly: Microculture tetrazolium assay. The format is cell-based. The note with it: for VLB/OV3: IC50 ratio SKVLB/SKOV3; for IC50: SKVLB, read-out: IC50.

Regarding `COC(=O)[C@@H]1CC2=C(C(=O)c3c(c(OC)c4ccccc4c3O)C2=O)[C@@H](O[C@H]2C[C@H](NC(=O)C(F)(F)F)[C@H](O)[C@H](C)O2)O1` (mixture of isomers) [BCH-674, (1'S,1S,3R) and 1'S,1R,3S) Methyl(11-hydroxy-6-methoxy-1-[2',3',6'-trideoxy-3-trifluoroacetamido-4'-hydroxy-L-lyxohexopyranose]-5,12-dioxo-3,4,5,12-tetrahydroanthra-ceno[2,3-c]pyran-3-yl) formate], the 50% inhibitory concentration (IC50) in assay [1] came to 7.46 µM; in assay [3], 4.17 µM; in assay [7], 6.63 µM; in assay [8], 6.81 µM. Besides, the zone of inhibition in assay [2] (10 μg/DISK) turned out to be 122.2 ± 80.6 Zone Units; in assay [2] (100 μg/DISK) it was 36.6 ± 17.2 Zone Units; in assay [5] (10 μg/DISK) it was 30.5 ± 13.0 Zone Units; in assay [5] (100 μg/DISK), 198.2 ± 21.5 Zone Units; in assay [6] (10 μg/DISK) it was 24.4 ± 8.6 Zone Units; in assay [6] (100 μg/DISK), 213.5 ± 25.8 Zone Units. Also, the CC50 in assay [4] is 83.2 µM. For the same molecule, in assay [4], the concentration for 50% growth inhibition (GI50) is 15.8 µM. Further, in assay [8], the VLB/OV3 came out at 0.91.
`COC(=O)[C@H]1CC2=C(C(=O)c3c(c(OC)c4ccccc4c3O)C2=O)[C@H](O[C@H]2C[C@H](NC(=O)C(F)(F)F)[C@H](O)[C@H](C)O2)O1` (mixture of isomers) [BCH-675, (1'S,1S,3R) and 1'S,1R,3S) Methyl(11-hydroxy-6-methoxy-1-[2',3',6'-trideoxy-3-trifluoroacetamido-4'-hydroxy-L-lyxohexopyranose]-5,12-dioxo-3,4,5,12-tetrahydroanthra-ceno[2,3-c]pyran-3-yl) formate]: the IC50 in assay [1] was found to be 9.16 µM; in assay [3], 2.8 µM; in assay [7], 5.26 µM; in assay [8] it was 3.97 µM. Besides, the zone of inhibition in assay [2] (10 μg/DISK) was 0 Zone Units; in assay [2] (100 μg/DISK), 0 Zone Units; in assay [5] (10 μg/DISK), 0 Zone Units; in assay [5] (100 μg/DISK), 32.5 ± 9.3 Zone Units; in assay [6] (10 μg/DISK), 22.3 ± 3.5 Zone Units; in assay [6] (100 μg/DISK), 59.4 ± 8.6 Zone Units. In assay [4], the CC50 is 63.1 µM. In addition, the GI50 in assay [4] was 8.51 µM. In addition, the VLB/OV3 in assay [8] was 0.43.
In the case of `CCOC(=O)C1CC2=C(CO1)C(=O)c1c(cc3ccccc3c1O)C2=O` (centres unmarked) [BCH-651, Ethyl(6 and 11 hydroxy-5,12-dioxo-3,4,5,12-tetrahydro-anthraceno[2,3-c]pyran-3-yl)]formate], the concentration for half-maximal inhibition (IC50) in assay [1] was determined as 20.8 µM; in assay [3] it was 36.3 µM; in assay [7] it was 17 µM; in assay [8], 23.6 µM. Also, the zone of inhibition in assay [2] (10 μg/DISK) came out at 0 Zone Units; in assay [2] (100 μg/DISK), 61.0 ± 1.0 Zone Units; in assay [5] (10 μg/DISK) it was 0 Zone Units; in assay [5] (100 μg/DISK), 36.6 ± 8.6 Zone Units; in assay [6] (10 μg/DISK), 0 Zone Units; in assay [6] (100 μg/DISK), 100.0 Zone Units. Also, the CC50 in assay [4] was 46.8 µM. The concentration for 50% growth inhibition (GI50) in assay [4] is 5.89 µM. Further, the VLB/OV3 in assay [8] came out at 1.13.
As to `CCOC(=O)[C@@H]1CC2=C(C(=O)c3cc4ccccc4c(O)c3C2=O)[C@@H](O[C@H]2C[C@H](NC(=O)C(F)(F)F)[C@H](O)[C@H](C)O2)O1` [BCH-681, (1'S,1R,3S)Ethyl[6-hydroxy-5,12-dioxo-1-(3'-trifuloroacetamido-1-daunosaminyl)-3,4,5,12-tetrahydroanthraceno(2,3-C)pyran-3-yl]formate], the IC50 in assay [1] is 6.02 µM; in assay [3], 8.15 µM; in assay [7] it was 1.72 µM; in assay [8], 6.99 µM. The zone of inhibition is recorded as 106.7 ± 21.5 Zone Units in assay [2] (10 μg/DISK); 213.5 ± 43.1 Zone Units in assay [2] (100 μg/DISK); 51.8 ± 4.3 Zone Units in assay [5] (10 μg/DISK); 176.9 ± 8.6 Zone Units in assay [5] (100 μg/DISK); 54.9 ± 8.6 Zone Units in assay [6] (10 μg/DISK); 244.0 ± 43.1 Zone Units in assay [6] (100 μg/DISK). The CC50 in assay [4] was 16.6 µM. Further, the 50% growth inhibitory concentration (GI50) in assay [4] was 2.69 µM. Moreover, the “cross resistance with adriamycin, MATB/ADR vs MATB.WT” value in assay [6] was “no cross resistance with adriamycin”. Further, in assay [8], the VLB/OV3 was 1.16.
